# Measured values reported in patent publication US8883782B2, “Spiro-tetracyclic ring compounds as beta-secretase modulators and methods of use” (Amgen Inc., priority 2010, dated 2014).
# Read-outs that look alike come from different tables or passages of the source.
# Biological target: Beta Secretase enzyme (BACE) (Homo sapiens, UniProt P56817)
# Assay: In vitro enzymatic BACE FRET (fluorescence resonance energy transfer) assay
# Assay type: biochemical
# Description: In Vitro Enzymatic Bace Fret (Fluorescence Resonance Energy Transfer) Assay (Enzyme Assay Data in the Example Table I)
# The assay buffer used in this screen is 0.05 M acetate, pH 4.2, 10% DMSO final, 100 uM genapol (which is a nonionic detergent, below its Critical Micelle Concentration). […] This assay is effectively started by the addition of FRET substrate (50 nM) and the combination is incubated for one hour. The FRET assay is terminated with by addition of Tris buffer, which raises the pH to neutrality, and the fluorescence is determined. The FRET substrate is a peptide with commercially available fluorophore and quencher, on opposite sides of the BACE cleavage site.
# [1] = average IC50, enzyme assay, read-out: BACE 1 FRET assay
# Beta Secretase enzyme (BACE), sequence (P56817 46-501, species assumed): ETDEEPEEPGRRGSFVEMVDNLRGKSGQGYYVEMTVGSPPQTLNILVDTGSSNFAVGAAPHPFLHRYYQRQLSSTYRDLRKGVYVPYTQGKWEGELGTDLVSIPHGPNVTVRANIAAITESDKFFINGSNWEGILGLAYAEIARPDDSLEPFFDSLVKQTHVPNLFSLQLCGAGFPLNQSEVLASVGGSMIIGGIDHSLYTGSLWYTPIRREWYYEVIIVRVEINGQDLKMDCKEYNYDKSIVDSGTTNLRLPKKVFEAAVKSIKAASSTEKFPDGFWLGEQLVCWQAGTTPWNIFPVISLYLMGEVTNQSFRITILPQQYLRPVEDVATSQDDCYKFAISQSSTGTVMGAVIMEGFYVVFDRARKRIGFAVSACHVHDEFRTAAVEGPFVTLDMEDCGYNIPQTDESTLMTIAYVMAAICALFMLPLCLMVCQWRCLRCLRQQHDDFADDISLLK
IC50 [1],Structure (SMILES),IC50 (BACE 1 FRET assay (uM))
0.029 µM,"NC1=N[C@@]2(CO1)c1cc(-c3cc(F)cnc3F)ccc1Oc1cnc(-c3ccnc(F)c3)cc12 [Example 549, (5S)-7-(2,5-difluoro-3-pyridinyl)-3-(2-fluoro-4-pyridinyl)spiro[chromeno[2,3-c]pyridine-5,4′-[1,3]oxazol]-2′-amine]",–
0.002 µM,"NC1=N[C@@]2(CO1)c1cc(-c3c(F)ccnc3F)ccc1Oc1c(F)cc(C3=CCOCC3)cc12 [Example 565, (4S)-7′-(2,4-difluoro-3-pyridinyl)-2′-(3,6-dihydro-2H-pyran-4-yl)-4′-fluoro spiro[1,3-oxazole-4,9′-xanthen]-2-amine]",–
0.002 µM,"CC(C)(C#N)COc1cc(F)c2c(c1)[C@]1(COC(N)=N1)c1cc(-c3c(F)ccnc3F)ccc1O2 [Example 566, 3-(((4S)-2-amino-7′-(2,4-difluoro-3-pyridinyl)-4′-fluorospiro[1,3-oxazole-4,9′-xanthen]-2′-yl)oxy)-2,2-dimethylpropanenitrile]",–
0.0046 µM,"NC1=N[C@@]2(CO1)c1cc(-c3cccnc3F)ccc1Oc1cnc(-c3cncs3)cc12 [Example 576, (5S)-7-(2-fluoro-3-pyridinyl)-3-(1,3-thiazol-5-yl)spiro[chromeno[2,3-c]pyridine-5,4′-[1,3]oxazol]-2′-amine]",–
0.002 µM,"CC1(C#Cc2cnc3c(c2)[C@]2(CSC(N)=N2)c2cc(-c4cccnc4F)ccc2O3)COC1 [Example 586, (5S)-7-(2-fluoro-3-pyridinyl)-3-((3-methyl-3-oxetanyl)ethynyl)spiro[chromeno[2,3-b]pyridine-5,4′-[1,3]thiazol]-2′-amine]",–
0.002 µM,"NC1=N[C@@]2(CS1)c1cc(-c3cccnc3F)ccc1Oc1ncc(-c3cccnc3F)cc12 [Example 587, (5S)-3,7-bis (2-fluoro-3-pyridinyl)spiro[chromeno[2,3-b]pyridine-5,4′-[1,3]thiazol]-2′-amine]",–
0.0316 µM,"NC1=N[C@@]2(CS1)c1cc(-c3cccc(Cl)c3)ccc1Oc1cnc(Cl)cc12 [Example 593, (5S)-3-chloro-7-(3-chlorophenyl)spiro[chromeno[2,3-c]pyridine-5,4′-[1,3]thiazol]-2′-amine]",–
0.0531 µM,"NC1=N[C@@]2(CS1)c1cc(-c3cccnc3F)ccc1Oc1cnc(Cl)cc12 [Example 594, (5S)-3-chloro-7-(2-fluoro-3-pyridinyl)spiro[chromeno[2,3-c]pyridine-5,4′-[1,3]thiazol]-2′-amine]",–
0.142 µM,"NC1=N[C@@]2(CS1)c1cc(-c3cncc(F)c3)ccc1Oc1cnc(Cl)cc12 [Example 595, (5S)-3-chloro-7-(5-fluoro-3-pyridinyl)spiro[chromeno[2,3-c]pyridine-5,4′-[1,3]thiazol]-2′-amine]",–
0.0478 µM,"NC1=N[C@]2(CS1)c1cc(-c3cccc(C4=CCOCC4)c3)ccc1Oc1cnc(C3=CCOCC3)cc12 [Example 596, (5R)-3-(3,6-dihydro-2H-pyran-4-yl)-7-(3-(3,6-dihydro-2H-pyran-4-yl)phenyl)spiro[chromeno[2,3-c]pyridine-5,4′-[1,3]thiazol]-2′-amine]",–
4.5 µM,"NC1=N[C@@]2(CS1)c1cc(Br)ccc1Oc1c2cc(Cl)nc1F [Example 597, (5S)-7-bromo-3-chloro-1-fluorospiro[chromeno[2,3-c]pyridine-5,4′-[1,3]thiazol]-2′-amine]",–

# More lines, now with the values behind:
Structure (SMILES),IC50 [1],IC50 (BACE 1 FRET assay (uM))
"NC1=N[C@]2(CO1)c1cc(C3=CCOCC3)ccc1Oc1ccc(-c3cccnc3F)cc12 [Example 136, (R)-2′-(3,6-dihydro-2H-pyran-4-yl)-7′-(2-fluoropyridin-3-yl)-5H-spiro[oxazole-4,9′-xanthen]-2-amine 2,2,2-trifluoroacetate]",–,0.0026 µM
"NC1=N[C@@]2(CO1)c1cc(-c3cccnc3F)ccc1Oc1cnc(N3CCC(F)(F)CC3)cc12 [Example 137, (S)-3-(4,4-difluoropiperidin-1-yl)-7-(2-fluoropyridin-3-yl)-5′H-spiro[chromeno[2,3-c]pyridine-5,4′-oxazol]-2′-amine]",–,0.0007 µM
"NC1=N[C@@]2(CO1)c1cc(-c3cccnc3F)ccc1Oc1cnc(N3CCC(F)(F)C3)cc12 [Example 140, (S)-3-(3,3-difluoropyrrolidin-1-yl)-7-(2-fluoropyridin-3-yl)-5′H-spiro[chromeno[2,3-c]pyridine-5,4′-oxazol]-2′-amine]",–,0.0006 µM
"NC1=N[C@@]2(CO1)c1cc(-c3cccnc3F)ccc1Oc1c2cc(-c2ccnc(F)c2)nc1F [Example 152, (5S)-1-fluoro-7-(2-fluoro-3-pyridinyl)-3-(2-fluoro-4-pyridinyl)spiro[chromeno[2,3-c]pyridine-5,4′-[1,3]oxazol]-2′-amine]",0.002 µM,–
"CC(C)(C)C#Cc1cc2c(cn1)Oc1ccc(-c3c(F)ccnc3F)cc1[C@@]21COC(N)=N1 [Example 165, (5S)-7-(2,4-difluoro-3-pyridinyl)-3-(3,3-dimethyl-1-butyn-1-yl)spiro[chromeno[2,3-c]pyridine-5,4′-[1,3]oxazol]-2′-amine]",0.002 µM,–
"NC1=N[C@@]2(CO1)c1cc(-c3cncc(F)c3)ccc1Oc1c(F)cc([C@H]3CCOC3)cc12 [Example 296, (4S)-4′-fluoro-7′-(5-fluoro-3-pyridinyl)-2′-((3R)-tetrahydro-3-furanyl)spiro[1,3-oxazole-4,9′-xanthen]-2-amine]",0.0072 µM,–
"NC1=N[C@@]2(CO1)c1cc(-c3cncc(F)c3)ccc1Oc1c(F)cc([C@@H]3CCOC3)cc12 [Example 297, (4S)-4′-fluoro-7′-(5-fluoro-3-pyridinyl)-2′-((3S)-tetrahydro-3-furanyl)spiro[1,3-oxazole-4,9′-xanthen]-2-amine]",0.0052 µM,–
"NC1=N[C@@]2(CO1)c1cc(-c3cccnc3)c(F)cc1Oc1c(F)cc(C3=CCCOC3)cc12 [Example 298, (4S)-7′-(5,6-dihydro-2H-pyran-3-yl)-3′,5′-difluoro-2′-(3-pyridinyl)spiro[1,3-oxazole-4,9′-xanthen]-2-amine]",0.0968 µM,–
"NC1=N[C@@]2(CO1)c1cc(-c3cccnc3F)ccc1Oc1c(F)cc([C@H]3CCOC3)cc12 [Example 299, (4S)-4′-fluoro-7′-(2-fluoro-3-pyridinyl)-2′-((3R)-tetrahydro-3-furanyl)spiro[1,3-oxazole-4,9′-xanthen]-2-amine]",0.0028 µM,–
"NC1=N[C@@]2(CO1)c1cc(-c3cccnc3F)ccc1Oc1c(F)cc([C@@H]3CCOC3)cc12 [Example 300, (4S)-4′-fluoro-7′-(2-fluoro-3-pyridinyl)-2′-((3S)-tetrahydro-3-furanyl)spiro[1,3-oxazole-4,9′-xanthen]-2-amine]",0.0023 µM,–
"NC1=N[C@@]2(CO1)c1cc(-c3ccccc3)ncc1Oc1c(F)cc(C3=CCOCC3)cc12 [Example 309, (5S)-7-(3,6-dihydro-2H-pyran-4-yl)-9-fluoro-3-phenylspiro[chromeno[2,3-c]pyridine-5,4′-[1,3]oxazol]-2′-amine]",0.0172 µM,–
"NC1=N[C@@]2(CO1)c1cc(-c3c(F)ccnc3F)ccc1Oc1cnc(-c3ccnc(F)c3)cc12 [Example 397, (5S)-7-(2,4-difluoro-3-pyridinyl)-3-(2-fluoro-4-pyridinyl)spiro[chromeno[2,3-c]pyridine-5,4′-[1,3]oxazol]-2′-amine]",0.002 µM,–
"NC1=N[C@@]2(CO1)c1cc(-c3c(F)ccnc3F)ccc1Oc1cnc(-c3ccncc3)cc12 [Example 398, (5S)-7-(2,4-difluoro-3-pyridinyl)-3-(4-pyridinyl)spiro[chromeno[2,3-c]pyridine-5,4′-[1,3]oxazol]-2′-amine]",0.002 µM,–
"NC1=N[C@@]2(CO1)c1cc(-c3c(F)ccnc3F)ccc1Oc1cnc(Cl)cc12 [Example 399, (5S)-3-chloro-7-(2,4-difluoro-3-pyridinyl)spiro[chromeno[2,3-c]pyridine-5,4′-[1,3]oxazol]-2′-amine]",0.0599 µM,–
"NC1=N[C@@]2(CO1)c1cc(-c3ccc(F)cc3)ccc1Oc1cnc(C3CCOCC3)cc12 [Example 400, (5S)-7-(4-fluorophenyl)-3-(tetrahydro-2H-pyran-4-yl)spiro[chromeno[2,3-c]pyridine-5,4′-[1,3]oxazol]-2′-amine]",0.0709 µM,–
"NC1=N[C@@]2(CO1)c1cc(-c3cccc(Cl)c3)ccc1Oc1cnc(N3CCC(F)(F)C3)cc12 [Example 432, (5S)-7-(3-chlorophenyl)-3-(3,3-difluoro-1-pyrrolidinyl)spiro[chromeno[2,3-c]pyridine-5,4′-[1,3]oxazol]-2′-amine]",0.002 µM,–
"NC1=N[C@]2(CO1)c1cc(-c3cccc(Cl)c3)ccc1Oc1cnc(N3CCC(F)(F)C3)cc12 [Example 433, (5R)-7-(3-chlorophenyl)-3-(3,3-difluoro-1-pyrrolidinyl)spiro[chromeno[2,3-c]pyridine-5,4′-[1,3]oxazol]-2′-amine]",0.025 µM,–
"NC1=N[C@@]2(CO1)c1cc(-c3cccnc3)ccc1Oc1c2cc(-c2ccnc(F)c2)nc1F [Example 491, (5S)-1-fluoro-3-(2-fluoro-4-pyridinyl)-7-(3-pyridinyl)spiro[chromeno[2,3-c]pyridine-5,4′-[1,3]oxazol]-2′-amine]",0.002 µM,–
"Cc1ncc(-c2cc3c(cn2)Oc2ccc(-c4cccnc4F)cc2[C@@]32COC(N)=N2)cn1 [Example 546, (5S)-7-(2-fluoro-3-pyridinyl)-3-(2-methyl-5-pyrimidinyl)spiro[chromeno[2,3-c]pyridine-5,4′-[1,3]oxazol]-2′-amine]",0.0103 µM,–
"NC1=N[C@@]2(CO1)c1cc(-c3ccnc(F)c3)ccc1Oc1cnc(C3=CCOCC3)cc12 [Example 547, (5S)-3-(3,6-dihydro-2H-pyran-4-yl)-7-(2-fluoro-4-pyridinyl)spiro[chromeno[2,3-c]pyridine-5,4′-[1,3]oxazol]-2′-amine]",0.0261 µM,–
"NC1=N[C@@]2(CO1)c1cc(-c3ccnc(F)c3)ccc1Oc1cnc(-c3ccnc(F)c3)cc12 [Example 548, (5S)-3,7-bis(2-fluoro-4-pyridinyl)spiro[chromeno[2,3-c]pyridine-5,4′-[1,3]oxazol]-2′-amine]",0.055 µM,–
